# Assays:
# Assay type in all cases: in vivo
# [1] = tested on: adult unfed cat fleas (Ctenocephalides felis); assay: Ctenocephalides felis oral test; conditions: 48 h, read-out: activity (mortality)
# In short: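 About 20 adult unfed fleas fed through parafilm on cattle blood containing compound (DMSO stock diluted in blood), blood held at 37 °C and fleas at room temperature. Mortality (%) scored after 2 days.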
# [2] = tested on: larvae of the banded cucumber beetle (Diabrotica balteata); assay: Diabrotica balteata spray test; conditions: 168 h, after 7 days, read-out: activity (efficacy: seedlings grown); for pest or weed control at 100 g/ha: application rate 100 g/ha (=32 pg/well); for pest or weed control at 500 g/ha: application rate 500 g/ha (=160 pg/well)
# In short: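 Read-out is % efficacy at day 7, 0% meaning no seedling growth and 100% growth equal to uninfested untreated controls. Test solutions (acetone/DMF concentrate diluted with water carrying 1000 ppm emulsifier) were sprayed onto 1-day-germinated wheat seeds, 5 per well, before infestation with 10-20 larvae.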
# [3] = tested on: adult cat fleas (Ctenocephalides felis); assay: Ctenocephalides felis in-vitro contact test, adult cat flea; conditions: application rate 5 μg/cm^2 (=500 g/ha), after 48 hours, read-out: activity (efficacy: fleas dead or moribund)
# Description: Ctenocephalides felis—In-Vitro Contact Tests Adult Cat Flea
# 9 mg compound is solved in 1 mL acetone and diluted with acetone to the desired concentration. 250 μL of the test solution is filled in 25 mL glass test tubes and homogeneously distributed on the inner walls by rotation and tilting on a shaking device (2 h at 30 rpm). With a compound concentration of 900 ppm, an inner surface of 44.7 cm^2 and a homogeneous distribution, a dose of […] is achieved.
# After the solvent has evaporated, each test tube is filled with 5-10 adult cat fleas (Ctenocephalides felis), closed with a perforated lid and incubated in a lying position at room temperature and relative humidity. After 48 hours efficacy is determined. The fleas are patted on the ground of the tubes and are incubated on a heating plate at 45-50° C. for at most 5 minutes. Immotile or uncoordinated moving fleas, which are not able to escape the heat by climbing upwards, are marked as dead or moribund.
# An efficacy of 100% means all fleas are dead or moribund; 0% means no fleas are dead or moribund.
# [4] = tested on: adult engorged female ticks (Rhipicephalus microplus); assay: Rhipicephalus (Boophilus) microplus injection test; conditions: 168 h, egg deposition after 7 days, read-out: activity (efficacy: infertile eggs); for pest or weed control at 4 pg: application rate 4 pg/animal; for pest or weed control at 0.02 mg: application rate 20 μg/animal
# In short: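 Abdominal injection, 1 μL compound/DMSO, n=5 engorged adult females; climate-chamber incubation. Readout d7: fertile egg laying; doubtful eggs held to hatch (~42 d). % efficacy = infertile eggs (100% all infertile).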
# [5] = tested on: green peach aphid (Myzus persicae); assay: Myzus persicae oral test; conditions: 120 h, application rate 4 ppm, after 5 days
# In short: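 Aphids of mixed population ingest the compound preparation by sucking through a parafilm sheet stretched over wells holding test solution plus IPL41 insect medium (33%+15% sugar). Kill rate in percent is determined five days later.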
# [6] = tested on: larvae of the southern green stink bug (Nezara viridula); assay: Nezara viridula spray test; conditions: 96 h, after 4 days; for mortality at 100 g/ha: application rate 100 g/ha; for mortality at 500 g/ha: application rate 500 g/ha
# In short: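 Larva-infested barley (Hordeum vulgare) plants received a spray of test solution prepared from an acetone/DMF concentrate diluted in emulsifier-containing water (1000 ppm). Percent kill read 4 days later; 0% means no stink bugs dead.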
# [7] = tested on: fall armyworm larvae (Spodoptera frugiperda); assay: Spodoptera frugiperda spray test; conditions: 168 h, read-out: activity (mortality)
# In short: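 Larvae of fall armyworm placed on dried maize leaf sections previously sprayed with emulsified compound (acetone/DMF solvent, water with 1000 ppm emulsifier). Percent of caterpillars killed recorded on day 7, 0–100% scale.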
# [8] = tested on: Rhipicephalus microplus larvae (strain Parkhurst, resistant against synthetic pyrethroids); assay: Rhipicephalus (Boophilus) microplus in-vitro contact test, larval cattle tick; conditions: after 48 hours, read-out: activity (efficacy: larvae dead or moribund); for pest or weed control at 100 g/ha: application rate 1 pg/cm^2 (=100 g/ha); for pest or weed control at 500 g/ha: application rate 5 pg/cm^2 (=500 g/ha)
# In short: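 Larvae (20-50 per tube) exposed to dry compound film on glass tube walls, 5 μg/cm^2 at 900 ppm, applied from acetone. After 48 h at 27° C./85% RH, tubes tapped and negative geotaxis scored; efficacy as percent dead or moribund larvae.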
# [9] = tested on: adult brown dog ticks (Rhipicephalus sanguineus); assay: Rhipicephalus sanguineus in-vitro contact test, adult brown dog ticks; conditions: after 48 hours, read-out: activity (efficacy: ticks dead or moribund); for pest or weed control at 100 g/ha: application rate 1 pg/cm^2 (=100 g/ha); for pest or weed control at 5 µg/cm2, 500 g/ha: application rate 5 μg/cm^2 (=500 g/ha)
# In short: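 Read-out: % efficacy as dead or moribund ticks, judged 48 h after exposure by failure to climb away from a 45-50° C heating plate within 5 min. Tubes were coated with acetone solution (900 ppm = 5 μg/cm^2 surface dose) and held 5-10 adults each at room temperature.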
# [10] = tested on: green peach aphid (Myzus persicae); assay: Myzus persicae spray test; conditions: 120 h, after 5 days; for mortality at 100 g/ha: application rate 100 g/ha; for mortality at 500 g/ha: application rate 500 g/ha
# Description: Myzus persicae—Spray Test
# Solvent: 78.0 parts by weight acetone • 1.5 parts by weight dimethylformamide
# Emulsifier: alkylarylpolyglycol ether
# To produce a suitable preparation of active compound, 1 part by weight of active compound is mixed with the stated amount of solvents and is diluted with water, containing an emulsifier concentration of 1000 ppm, to the desired concentration. Further test concentrations are prepared by dilution with emulsifier containing water.
# Chinese cabbage (Brassica pekinensis) leaf disks infected with all instars of the green peach aphid (Myzus persicae), are sprayed with a preparation of the active ingredient of the desired concentration.
# After 5 days mortality in % is determined. 100% means all aphids have been killed and 0% means none of the aphids have been killed.
# [11] = tested on: Aedes aegypti strain MONHEIM; assay: Aedes aegypti test (AEDSAE surface treatment & contact assay); conditions: 24 hours after contact, read-out: efficacy (mortality); for mortality at 4 mg/m2: surface concentration 4 mg/m^2, exposure 30 minutes
# Description: Aedes aegypti Test (AEDSAE Surface Treatment & Contact Assay)
# Solvent: Aceton+2000 ppm rapeseed oil methyl ester (RME)
# In order to produce a sufficient, active ingredient containing solution it is necessary to solve the test compound in the solvent-mix (acetone at 2 mg/ml/RME 2000 ppm). This solution is pipetted onto a glazed tile and after evaporation of the acetone, adult mosquitoes of the species Aedes aegypti strain MONHEIM are placed onto the dried surface. The exposure time is 30 minutes. Mortality in percent (%) is determined 24 hours after contact of the insects to the treated surface. 100% mortality means that all tested insects are dead, whereas 0% means that no insect died.
Compound,mortality at 100 ppm [1] [%],pest or weed control at 100 g/ha [2] [%],pest or weed control at 500 g/ha [2] [%],pest or weed control at 5 µg/cm2 [3] [%],pest or weed control at 4 pg [4] [%],pest or weed control at 0.02 mg [4] [%],mortality at 4 ppm [5] [%],mortality at 100 g/ha [6] [%],mortality at 500 g/ha [6] [%],mortality at 100 g/ha [7] [%],pest or weed control at 100 g/ha [8] [%],pest or weed control at 500 g/ha [8] [%],pest or weed control at 100 g/ha [9] [%],"pest or weed control at 5 µg/cm2, 500 g/ha [9] [%]",mortality at 100 g/ha [10] [%],mortality at 500 g/ha [10] [%],mortality at 4 mg/m2 [11] [%],"mortality at 20 mg/m2 ([11]; surface concentration 20 mg/m^2, exposure 30 minutes) [%]",mortality at 500 g/ha [7] [%]
CC(NC(=O)c1cc(Cl)cc(S(C)(=O)=O)c1)c1nc(C(F)F)nn1-c1ncccn1 (centres unmarked) [I-5],100,100,100,80,100,100,100,90,90,,,,,,,,,,
CCS(=O)(=O)c1cc(Cl)cc(C(=O)N[C@@H](C)c2nc(C3CC3)nn2-c2ncc(Cl)cn2)c1 [I-24],90,,,80,100,100,100,100,,100,100,100,100,80,,,,,
COc1nc([C@H](C)NC(=O)c2cc(Cl)cc(S(C)(=O)=O)c2)n(-c2ccc(Cl)cn2)n1 [I-45],,100,,100,100,,100,,,100,90,90,,,90,,,,
C[C@H](NC(=O)c1cc(C(F)F)cc(S(C)(=O)=O)c1)c1nc(C2CC2)nn1-c1ccc(C#N)cn1 [I-51],100,100,,90,100,,100,,,100,100,100,,,,,,,
C[C@H](NC(=O)c1cc(Cl)cc(S(C)(=O)=O)c1)c1nc(C2CC2)nn1-c1ncc(Cl)cn1 [I-61],,100,,100,,,100,100,100,100,100,100,80,100,90,90,,,
C[C@H](NC(=O)c1cc(Cl)cc(C2(C#N)CC2)c1)c1ncnn1-c1cc(C#N)ccn1 [II-4],100,100,100,80,100,100,100,100,100,83,,,,,,90,80 to 100,80 to 100,
"Cc1nc([C@H](C)NC(=O)c2cc(Cl)cc(S(=O)(=O)C(F)(F)F)c2)n(-c2ccc(C#N)cn2)n1 [II-15, 3-chloro-N-{(1S)-1-[1-(5-cyanopyridin-2-yl)-3-methyl-1H-1,2,4-triazol-5-yl]ethyl}-5-[(trifluoromethyl)sulfonyl]benzamide]",100,100,100,90,100,100,100,,100,100,100,100,,,,90,,,100
C[C@H](NC(=O)c1cc(C#N)cc(S(C)(=O)=O)c1)c1ncnn1-c1ccccn1 [II-31],100,100,100,100,100,100,100,100,100,,,,100,,,,,,83
C[C@H](NC(=O)c1cc(Br)cc(S(C)(=O)=O)c1)c1ncnn1-c1ccc(Cl)cn1 [II-40],100,,,100,100,100,,100,,100,100,100,100,100,,,80 to 100,,
C[C@H](NC(=O)c1cc(Cl)cc(S(C)(=O)=O)c1)c1ncnn1-c1ncc(I)cn1 [II-44],100,,,100,100,100,100,100,,100,100,100,,,,,,,
Cc1nc([C@H](C)NC(=O)c2cc(C(F)F)cc(C3CC3)c2)n(-c2ccc(C#N)cn2)n1 [II-61],,100,,100,100,,100,100,,83,100,100,100,100,90,,,,
